Measured values from patent US9193984B2, “Method for detecting interactions between two and more biological macromolecules” (Korea Basic Science Institute, priority 2008, dated 2015).

Molecular target: T1, first construct (TMD-mRFP) in CHO-k1 cells (Homo sapiens, UniProt Q05655, K378R/Y313F)
T1 construct: expressed in transfected cells; host or cells: CHO-k1
Assay: Translocation of first construct (TMD-mRFP) toward the cell membrane depending on PMA concentration
Type: cell-based, Cricetulus griseus
Source text: In order to optimize the translocation characteristic of the translocation module, the first construct vector (pTMD-mRFP-C3) shown in FIG. 5 was used to determine the optimum concentration of PMA (phorbol-12-myristate-13-acetate), which was used as an external stimulation. Detailed experimental procedures were the same as in FIG. 5.
A cover slip containing the cells in which the first construct and second construct vectors had been introduced was fixed to a perfusion chamber and mounted on the object stage of a confocal laser fluorescence microscope (Carl Zeiss LSM510). Images of the construct vectors were taken before and after external stimulation (treatment with 1 μM PMA).
Translocation efficiency of the first construct using the pTMD-mRFP-C3 vector depending on the concentration of external stimulant PMA was measured as follows. The expression vector of the first construct was transformed into CHO-k1 cells and overexpressed. After 18 hours of culturing, PMA was treated at 1, 5, 10, 20, 40, 50, 80 and 100 nM and 1 and 5 μM.

T1 sequence (Q05655 whole entry Y313F/K378R): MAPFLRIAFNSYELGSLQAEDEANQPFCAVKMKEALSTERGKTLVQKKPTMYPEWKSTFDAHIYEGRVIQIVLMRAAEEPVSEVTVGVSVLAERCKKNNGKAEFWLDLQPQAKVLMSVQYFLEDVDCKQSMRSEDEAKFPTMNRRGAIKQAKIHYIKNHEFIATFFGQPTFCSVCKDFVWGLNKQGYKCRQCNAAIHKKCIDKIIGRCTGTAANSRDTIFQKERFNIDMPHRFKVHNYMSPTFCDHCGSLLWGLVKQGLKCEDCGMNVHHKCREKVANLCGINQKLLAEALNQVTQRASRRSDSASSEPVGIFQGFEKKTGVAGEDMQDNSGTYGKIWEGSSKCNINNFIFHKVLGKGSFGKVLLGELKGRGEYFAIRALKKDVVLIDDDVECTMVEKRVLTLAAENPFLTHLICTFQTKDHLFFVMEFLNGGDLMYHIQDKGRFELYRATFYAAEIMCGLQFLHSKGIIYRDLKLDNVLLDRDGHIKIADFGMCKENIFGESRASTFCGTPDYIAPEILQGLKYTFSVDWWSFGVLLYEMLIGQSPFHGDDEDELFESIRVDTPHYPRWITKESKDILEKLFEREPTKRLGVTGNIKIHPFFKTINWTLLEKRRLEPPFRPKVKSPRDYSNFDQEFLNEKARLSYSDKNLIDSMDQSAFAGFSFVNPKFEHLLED

## CCCCCCCCCCCCCC(=O)O[C@@H]1[C@@H](C)[C@@]2(O)[C@@H](C=C(CO)C[C@]3(O)C(=O)C(C)=C[C@@H]23)[C@@H]2C(C)(C)[C@]12OC(C)=O [PMA, phorbol-12-myristate-13-acetate]
PMA 50 nM, CHO-k1, 200 cells counted
  cells with translocation of first construct toward the cell membrane: ≥ 90%
PMA 100 nM or higher
  movement of red fluorescence toward the cell membrane: increased
